# Experimental data: patent publication US10407467B2, “Polymyxin derivatives and their use in combination therapy together with different antibiotics” (priority 2013, dated 2019)
# Numbered stars: 1 amine (or outer) side, 2 acyl side, 3 side chain; on linkers, the order of the positions; unused ones are H or OH. Bridge positions count the residues as written; N and C are the ends. Square brackets hold non-standard residues; d marks the D form. Peptide text beside a SMILES is read from it. * marks the point of attachment. ξ: configuration not given here. Cyclohexanoyl(cis-4-NH2) = N[C@H]1CC[C@@H](C(=O)*)CC1; GABA(4S-Me) = C[C@@H](CCC(=O)[*:2])N[*:1]; NMeGABA = CN(CCCC(=O)[*:2])[*:1]; Thr(3ξ) = CC(O)[C@H](N)C(=O)O; Propanoyl(3-OH) = O=C(CCO)*; Dab = NCC[C@H](N)C(=O)O; X16 = CN(C)CCCC(=O)*; Glycolyl = O=C(CO)*; X15 = O=C(C1CCNC1)*; Ava = NCCCCC(=O)O
# Tests used:
# Assay type in all cases: cell-based
# Klebsiella pneumoniae [1] = assay: MIC, compound in combination with a second agent (broth microdilution); conditions: 1:1 (wt:wt) combination with Rifampicin, MIC = total drug concentration; for MIC K. pneumoniae ATCC-BAA-2146: strain ATCC-BAA-2146; for MIC K. pneumoniae CCUG-59348: strain CCUG-59348; for MIC K. pneumoniae NCTC 13438: strain NCTC 13438
# Experimental: (§1) To evaluate the potency and spectrum of the compounds both alone and in combination with another agent, susceptibility testing was performed against up to four strains of each of the four Gram negative pathogens, Escherichia coli, Pseudomonas aeruginosa, Klebsiella pneumoniae and Acinetobacter baumannii.
# (§2) Ratios of components in a combination, such as 1:1, refers to a weight to weight ratio. The minimum inhibitory concentration (MIC) refers to the total drug concentration (e.g. test compound plus second agent, such as Rifampicin).
# (§3) The inoculum was prepared by making a direct suspension of isolated colonies (selected from an 18-24 hour Mueller-Hinton agar plate) adjusted to the 0.5 McFarland standard.
# (§4) The assays were performed in duplicate.
# (§5) In cases where the duplicate values varied by less than 2-fold, the lower of the two values is reported. If a variation of greater than 2-fold was observed, the assay was considered non-valid. Several of the compounds were subjected to multiple tests, and where this is the case, the MIC reflects the modal value obtained.
# (§6) The minimum inhibitory concentration refers to the total drug concentration (e.g. test compound plus Rifampicin). The compounds are used at equal mass within the combination. The weight refers to the mass of compound as used, for example the Example Compounds are used in their TFA or sulphate salt forms.
# (§7) MICs refer to the total drug concentration. Thus, where a 1:1 combination is used, this is the amount of the test compound plus the second agent. For comparison, the MIC values for the second agent alone are also given.
# Acinetobacter baumannii [2] = assay: as above; conditions: 1:1 (wt:wt) combination with Rifampicin, MIC = total drug concentration; for MIC A. baumannii NCTC 13424: strain NCTC 13424
# Experimental: as §1, §2, §3, §4, §5, §6, §7
# Pseudomonas aeruginosa [3] = assay: as above; conditions: 1:1 (wt:wt) combination with Rifampicin, MIC = total drug concentration; for MIC P. aeruginosa CCUG 59626: strain CCUG 59626
# Experimental: as §1, §2, §3, §4, §5, §6, §7
# Klebsiella pneumoniae [4] = assay: MIC, sole activity (no second agent); conditions: in the absence of Rifampicin; strain ATCC 4352
# Summary of the method: (§8)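 First, isolated colonies grown 18-24 hours on Mueller-Hinton agar were suspended to 0.5 McFarland; next, up to four strains per pathogen were tested in duplicate in cation-adjusted MHB; finally, the lower concordant value or modal repeat value was reported against Polymyxin B.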
# Escherichia coli = assay: MIC, sole activity (no second agent); conditions: in the absence of Rifampicin; for MIC E. coli ATCC25922: strain ATCC25922
# Summary of the method: as §8
# Pseudomonas aeruginosa [5] = assay: MIC, sole activity (no second agent); conditions: in the absence of Rifampicin; for MIC P. aeruginosa ATCC 27853: strain ATCC27853; for MIC P. aeruginosa ATCCCRM-9027: strain ATCCCRM-9027
# Summary of the method: as §8
# Acinetobacter baumannii [6] = assay: MIC, sole activity (no second agent); conditions: in the absence of Rifampicin; for MIC A. baumannii ATCCBAA-747: strain ATCCBAA-747; for MIC A. baumannii NCTC 13423: strain NCTC13423
# Summary of the method: as §8
Structure (SMILES),MIC K. pneumoniae ATCC-BAA-2146 (Klebsiella pneumoniae [1]),MIC K. pneumoniae CCUG-59348 (Klebsiella pneumoniae [1]),MIC A. baumannii NCTC 13424 (Acinetobacter baumannii [2]),MIC P. aeruginosa CCUG 59626 (Pseudomonas aeruginosa [3]),MIC K. pneumoniae ATCC 4352 (Klebsiella pneumoniae [4]),MIC E. coli ATCC25922 (Escherichia coli),MIC P. aeruginosa ATCC 27853 (Pseudomonas aeruginosa [5]),MIC A. baumannii ATCCBAA-747 (Acinetobacter baumannii [6]),MIC A. baumannii NCTC 13423 (Acinetobacter baumannii [6]),MIC E. coli NCTC9001 (Escherichia coli; strain NCTC9001),MIC P. aeruginosa ATCCCRM-9027 (Pseudomonas aeruginosa [5]),MIC K. pneumoniae NCTC 13438 (Klebsiella pneumoniae [1]),MIC P. aeruginosa ATCC CRM-9027 (Pseudomonas aeruginosa [3]; strain ATCC CRM-9027),MIC A. baumannii CCUG57249 (Acinetobacter baumannii [2]; strain CCUG57249),MIC P. aeruginosa ATCC-47 (Pseudomonas aeruginosa [3]; strain ATCC-47)
"CC(C)C[C@@H]1NC(=O)[C@@H](Cc2ccccc2)NC(=O)[C@H](CCN)NC(=O)[C@@H](NC(=O)[C@H](CCN)NC(=O)[C@@H](NC(=O)CC(C)O)C(C)O)CCNC(=O)[C@H](C(C)O)NC(=O)[C@H](CCN)NC(=O)[C@H](CCN)NC1=O (mixture of isomers) [Example 15, 3(RS)-3- Hydroxybutanoyl polymyxin B nonapeptide]",4 micrograms/mL,16 micrograms/mL,0.5 micrograms/mL,0.5 micrograms/mL,8 micrograms/mL,4 micrograms/mL,0.5 micrograms/mL,–,–,–,–,–,–,–,–
"CC(C)C[C@@H]1NC(=O)[C@@H](Cc2ccccc2)NC(=O)[C@H](CCN)NC(=O)[C@@H](NC(=O)[C@H](CCN)NC(=O)[C@@H](NC(=O)CCCCN)C(C)O)CCNC(=O)[C@H](C(C)O)NC(=O)[C@H](CCN)NC(=O)[C@H](CCN)NC1=O (some centres unmarked) [Example 6, 5-Aminopentanoyl polymyxin B nonapeptide] (H-[Ava][Thr(3ξ)][Dab][Dab][Dab][dF]L[Dab][Dab][Thr(3ξ)]; lactam 4-C)",–,4 micrograms/mL,–,≤0.06 micrograms/mL,0.5 micrograms/mL,2 micrograms/mL,0.25 micrograms/mL,8 micrograms/mL,4 micrograms/mL,2 micrograms/mL,0.125 micrograms/mL,–,–,–,–
"CC(C)C[C@@H]1NC(=O)[C@@H](Cc2ccccc2)NC(=O)[C@H](CCN)NC(=O)[C@@H](NC(=O)[C@H](CCN)NC(=O)[C@@H](NC(=O)CO)C(C)O)CCNC(=O)[C@H](C(C)O)NC(=O)[C@H](CCN)NC(=O)[C@H](CCN)NC1=O (some centres unmarked) [Example 8, Hydroxyacetyl polymyxin B nonapeptide] (Glycolyl-[Thr(3ξ)][Dab][Dab][Dab][dF]L[Dab][Dab][Thr(3ξ)]; lactam 3-C)",2 micrograms/mL,8 micrograms/mL,0.5 micrograms/mL,0.25 micrograms/mL,8 micrograms/mL,32 micrograms/mL,0.25 micrograms/mL,–,–,–,–,–,–,–,–
"CC(C)C[C@@H]1NC(=O)[C@@H](Cc2ccccc2)NC(=O)[C@H](CCN)NC(=O)[C@@H](NC(=O)[C@H](CCN)NC(=O)[C@@H](NC(=O)C2CCNC2)C(C)O)CCNC(=O)[C@H](C(C)O)NC(=O)[C@H](CCN)NC(=O)[C@H](CCN)NC1=O (stereo partly drawn) [Example 9, [3(R,S)-Pyrrolidine-3-carbonyl]polymyxin B nonapeptide] (X15-[Thr(3ξ)][Dab][Dab][Dab][dF]L[Dab][Dab][Thr(3ξ)]; lactam 3-C)",1 micrograms/mL,8 micrograms/mL,–,0.125 micrograms/mL,0.5 micrograms/mL,0.5 micrograms/mL,0.25 micrograms/mL,4 micrograms/mL,2 micrograms/mL,–,2 micrograms/mL,0.25 micrograms/mL,–,–,–
"CC(C)C[C@@H]1NC(=O)[C@@H](Cc2ccccc2)NC(=O)[C@H](CCN)NC(=O)[C@@H](NC(=O)[C@H](CCN)NC(=O)[C@@H](NC(=O)CCCN(C)C)C(C)O)CCNC(=O)[C@H](C(C)O)NC(=O)[C@H](CCN)NC(=O)[C@H](CCN)NC1=O (some centres unmarked) [Example 11, 4-(N,N-dimethylamino)-butanoyl polymyxin B nonapeptide] (X16-[Thr(3ξ)][Dab][Dab][Dab][dF]L[Dab][Dab][Thr(3ξ)]; lactam 3-C)",0.5 micrograms/mL,4 micrograms/mL,–,0.25 micrograms/mL,0.5 micrograms/mL,0.5 micrograms/mL,0.125 micrograms/mL,16 micrograms/mL,4 micrograms/mL,–,2 micrograms/mL,1 micrograms/mL,–,–,–
"CNCCCC(=O)N[C@H](C(=O)N[C@@H](CCN)C(=O)N[C@H]1CCNC(=O)[C@H](C(C)O)NC(=O)[C@H](CCN)NC(=O)[C@H](CCN)NC(=O)[C@H](CC(C)C)NC(=O)[C@@H](Cc2ccccc2)NC(=O)[C@H](CCN)NC1=O)C(C)O (some centres unmarked) [Example 16, 4-(N-methylamino)-butanoyl polymyxin B nonapeptide] (NMeGABA-[Thr(3ξ)][Dab][Dab][Dab][dF]L[Dab][Dab][Thr(3ξ)]; lactam 3-C)",–,–,0.125 micrograms/mL,0.125 micrograms/mL,0.5 micrograms/mL,0.5 micrograms/mL,0.25 micrograms/mL,–,–,–,–,0.5 micrograms/mL,0.125 micrograms/mL,–,–
"CC(C)C[C@@H]1NC(=O)[C@@H](Cc2ccccc2)NC(=O)[C@H](CCN)NC(=O)[C@@H](NC(=O)[C@H](CCN)NC(=O)[C@@H](NC(=O)[C@H]2CC[C@@H](N)CC2)C(C)O)CCNC(=O)[C@H](C(C)O)NC(=O)[C@H](CCN)NC(=O)[C@H](CCN)NC1=O (stereo partly drawn) [Example 20, Cis-4-aminocyclohexane carbonyl polymyxin B nonapeptide] ({Cyclohexanoyl(cis-4-NH2)}-[Thr(3ξ)][Dab][Dab][Dab][dF]L[Dab][Dab][Thr(3ξ)]; lactam 3-C)",0.25 micrograms/mL,4 micrograms/mL,<0.06 micrograms/mL,0.125 micrograms/mL,0.125 micrograms/mL,2 micrograms/mL,0.125 micrograms/mL,–,–,–,–,0.25 micrograms/mL,–,≤0.06 micrograms/mL,0.125 micrograms/mL
"CC(C)C[C@@H]1NC(=O)[C@@H](Cc2ccccc2)NC(=O)[C@H](CCN)NC(=O)[C@@H](NC(=O)[C@H](CCN)NC(=O)[C@@H](NC(=O)CC[C@H](C)N)C(C)O)CCNC(=O)[C@H](C(C)O)NC(=O)[C@H](CCN)NC(=O)[C@H](CCN)NC1=O (stereo partly drawn) [Example 24, 4S-aminopentanoyl polymyxin B nonapeptide] ({GABA(4S-Me)}-[Thr(3ξ)][Dab][Dab][Dab][dF]L[Dab][Dab][Thr(3ξ)]; lactam 3-C)",0.5 micrograms/mL,8 micrograms/mL,0.5 micrograms/mL,0.25 micrograms/mL,0.5 micrograms/mL,>32 micrograms/mL,0.25 micrograms/mL,–,–,–,–,–,–,–,–
"CC(C)C[C@@H]1NC(=O)[C@@H](Cc2ccccc2)NC(=O)[C@H](CCN)NC(=O)[C@@H](NC(=O)[C@H](CCN)NC(=O)[C@@H](NC(=O)CCO)C(C)O)CCNC(=O)[C@H](C(C)O)NC(=O)[C@H](CCN)NC(=O)[C@H](CCN)NC1=O (some centres unmarked) [Example 26, 3-Hydroxypropanoyl polymyxinB nonapeptide] ({Propanoyl(3-OH)}-[Thr(3ξ)][Dab][Dab][Dab][dF]L[Dab][Dab][Thr(3ξ)]; lactam 3-C)",2 micrograms/mL,8 micrograms/mL,0.5 micrograms/mL,0.25 micrograms/mL,4 micrograms/mL,>32 micrograms/mL,0.5 micrograms/mL,–,–,–,–,–,–,–,–
